Non-standard residues stand in square brackets, D forms with d. Residues, ends and D or L forms follow the SMILES beside them. *: point of attachment. Decanoyl = CCCCCCCCCC(=O)*
What was measured:
[1] = target: T1, Apolipoprotein C-III (P33622) (Mus musculus, UniProt P33622); test: Mass spectrometry of mouse plasma proteins bound to bead-immobilized peptide; format: binding; conditions: intensity bound to L-form / D-form of C10-KR8
T1 construct: incubated with 5% mouse plasma; from tissue; host or cells: mouse plasma (5%)
T1 sequence (P33622 21-99): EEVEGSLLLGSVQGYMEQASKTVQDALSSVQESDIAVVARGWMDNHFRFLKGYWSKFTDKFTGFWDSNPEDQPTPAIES
Protocol: Dynabeads M-370 amine (2×10^9 beads/mL, 50 μL; Thermo Fisher Scientific) were washed 3 times in sterile PBS (1 mL; GIBCO) and reacted with a bifunctional SM(PEG)4 cross-linker (5 mg/mL in DMSO) containing N-hydroxysuccinimide (NHS) ester and maleimide functional groups. A stable covalent bond between the amino group of beads and the NHS ester of the cross-linker was formed in PBS at pH 7.2 at room temperature for 24 hours with shaking at 80 rpm. The beads were then washed six times with PBS to remove nonreacted cross-linker. Next, peptide C10-KR8 (with a cysteine at the N-terminus) at 5 mg/mL was reacted with the free maleimide group in PBS for 24 hours at room temperature with shaking at 80 rpm. Another round of washing was conducted to remove the nonreacted peptides. Both the L-and D-forms of the peptide were coupled in the same manner. A portion of the beads without peptide coupling was saved as a control.
For serum binding experiments, the beads were resuspended in 500 μL of PBS; 200-μL aliquots of the coated and control dynabead were incubated with 5% mouse plasma for 18 hours at 37° C. After binding, the beads were washed six times with PBS to remove unbound proteins. Finally, the beads were suspended in 50 μL of PBS for mass spectrophotometric analysis to identify peptide-binding partners.
The samples were reduced by 10 mM dithiothreitol (DTT) and incubated for 30 minutes at 56° C. and back to room temperature. A final concentration of 50 mM iodoacetamide was added to alkylate free cysteines followed by further incubation for 20 min in the dark. Bound proteins were enzymatically digested by trypsin (4 μL of 0.5 μg/mL) overnight. A 60 […] portion was transferred to a new Eppendorf® tube and dried for 2 hours. The samples were then dissolved in 20 μL of 2% acetonitrile with 0.1% formic acid before being loaded to Q-tip columns (Pepclean, C18 spin column). Column was activated by pipetting in and out (4× times), 10 μL of 70% acetonitrile with 0.1% formic acid, and equilibrating with the same volume of 2% acetonitrile with 0.1% formic acid. Binding of the samples was done by mixing more than 10 × times, followed by washing in the same buffer (2% acetonitrile with 0.1% formic acid). The bound peptides were then eluted with 20 μL of 70% acetonitrile with 0.1% formic acid. Samples were subjected to LC-MS analysis after being suspended in the desired buffer.
Extracted peptides were resuspended in 2% acetonitrile (ACN) and 0.1% formic acid (FA) and loaded onto trap column Acclaim™ PepMap™ 100 75 μm×2 cm C18 LC Columns (Thermo Scientific) at a flow rate of 4 μL/minute. These were then separated with a Thermo RSLC UltiMate™ 3000 on a Thermo Easy-Spray PepMap™ M RSLC C18 75 μm×50 cm C-18 2 μm column (Thermo Scientific) with a step gradient of 4-25% solvent B (0.1% FA in 80% ACN) from 10 to 37 minutes and 25-45% solvent B for 37-46 minutes at 300 nL/min and 50° C. with a 70 minute total run time. Eluted peptides were analyzed by a Thermo Orbitrap Fusion™ Lumos™ Tribrid™ (Thermo Scientific) mass spectrometer in a data dependent acquisition mode. A survey full scan MS (from m/z 350-1800) was acquired in the orbitrap with a resolution of 120000. The AGC target for MS1 was set as 4×10^5 and the ion filling time set as 100 ms. The most intense ions with charge state 2-6 were isolated in 3 second cycle and fragmented using HCD fragmentation with 40% normalized collision energy and detected at a mass resolution of 30000 at 200 m/z. The AGC target for MS/MS was set as 5×10^4 and ion filling time set 60 ms dynamic exclusion was set for 30 seconds with a 10 ppm mass window. Protein identification was performed by searching MS/MS data against the Swiss-Prot mouse protein database. The search was set up for full tryptic peptides with a maximum of two missed cleavage sites. Acetylation of protein N-terminus and oxidized methionine were included as variable modifications, and carbamidomethylation of cysteine was set as fixed modification. […]

[2] = test system: S. aureus USA300 transposon mutant SAUSA300_1255 (mprF); test: Antimicrobial susceptibility of transposon mutant; format: cell-based; conditions: mutant SAUSA300_1255 mprF versus WT
Protocol: (§1) The antimicrobial susceptibility of over 20 MRSA transposon mutants were also tested, based on a transposon library screening, in the presence of LL-37 peptides (Golla, et al. (2020) ACS Infect. Dis., 6:1866-1881). This Nebraska Transposon Mutant Library of S. aureus USA300 consists of 1920 mutants, each with one nonessential gene disabled due to a transposon insertion (Fey, et al. (2013) mBio 4:e00537-12). The correct insertion of the transposon to each Staph mutant had been verified (Golla, et al. (2020) ACS Infect. Dis., 6:1866-1881). Antimicrobial susceptibility to the new peptide C10-KR8d was evaluated in the same manner as MIC assays. Susceptible strains could be inhibited at a peptide concentration lower than the MIC against the wild strain S. aureus JE2.

[3] = test system: S. aureus USA300 transposon mutant SAUSA300_1865 (vraR); test: Antimicrobial susceptibility of transposon mutant; format: cell-based; conditions: mutant SAUSA300_1865 vraR versus WT
Protocol: as §1

[4] = test system: S. aureus USA300 transposon mutant SAUSA300_1037 (pheS); test: Antimicrobial susceptibility of transposon mutant; format: cell-based; conditions: mutant SAUSA300_1037 pheS versus WT
Protocol: as §1

[5] = test system: S. aureus USA300 transposon mutant SAUSA300_0646 (graS); test: Antimicrobial susceptibility of transposon mutant; format: cell-based; conditions: mutant SAUSA300_0646 graS versus WT
Protocol: as §1

[6] = test system: S. aureus USA300 transposon mutant SAUSA300_0988 (trkA); test: Antimicrobial susceptibility of transposon mutant; format: cell-based; conditions: mutant SAUSA300_0988 trkA versus WT
Protocol: as §1

[7] = test system: S. aureus USA300 transposon mutant SAUSA300_0645 (graR); test: Antimicrobial susceptibility of transposon mutant; format: cell-based; conditions: mutant SAUSA300_0645 graR versus WT
Protocol: as §1

[8] = test system: S. aureus USA300 transposon mutant SAUSA300_1089 (lspA); test: Antimicrobial susceptibility of transposon mutant; format: cell-based; conditions: mutant SAUSA300_1089 lspA versus WT
Protocol: as §1

| SMILES | L/D Ratio, Apolipoprotein C-III [1] | Susceptible? [2] | Susceptible? [3] | Susceptible? [4] | Susceptible? [5] | Susceptible? [6] | Susceptible? [7] | Susceptible? [8] |
| --- | --- | --- | --- | --- | --- | --- | --- | --- |
| CCCCCCCCCC(=O)N[C@@H](CCCCN)C(=O)N[C@@H](CCCNC(=N)N)C(=O)N[C@H](C(=O)N[C@@H](Cc1c[nH]c2ccccc12)C(=O)N[C@@H](CCC(N)=O)C(=O)N[C@@H](CCCNC(=N)N)C(=O)N[C@H](C(=O)N[C@@H](CCCCN)C(N)=O)[C@@H](C)CC)[C@@H](C)CC [Peptide C10-KR8] (Decanoyl-KRIWQRIK-NH2) | 3.62 | – | – | – | – | – | – | – |
| CCCCCCCCCC(=O)N[C@H](CCCCN)C(=O)N[C@H](CCCNC(=N)N)C(=O)N[C@@H](C(=O)N[C@H](Cc1c[nH]c2ccccc12)C(=O)N[C@H](CCC(N)=O)C(=O)N[C@H](CCCNC(=N)N)C(=O)N[C@@H](C(=O)N[C@H](CCCCN)C(N)=O)[C@H](C)CC)[C@H](C)CC [Peptide C10-KR8d] (Decanoyl-[dK][dR][dI][dW][dQ][dR][dI][dK]-NH2) | – | Yes | Yes | Yes | Yes | Yes | Yes | Yes |

— patent publication US20240294572A1, “Antimicrobial Peptides” (priority 2021, published 2024)
